Results: the supplement of paper PMC10307832

Legend:
Assay in all cases: relative viability (nuclei count vs DMSO), 5 days (fraction); higher = more cells survive
NCI-H1734 = tested on: NCI-H1734
Outline: (§1)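 Lung cancer cell lines, seeded in 1536-well plates, were treated the following day by pin tool with a single drug or with five library-drug doses (not always all listed) in √10 steps on top of a fixed anchor-drug dose. Cells were fixed and nuclei stained in one step after 5 days, and nuclei were counted. Relative viability is the nuclei count for treated wells divided by that for vehicle wells, reported as medians of duplicate plates.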

HCC-366 = tested on: HCC-366
Outline: as §1

NCI-H2170 = tested on: NCI-H2170
Outline: as §1

NCI-H1792 = tested on: NCI-H1792
Outline: as §1

H3255 = tested on: H3255
Outline: as §1

EKVX = tested on: EKVX
Outline: as §1

NCI-H520 = tested on: NCI-H520
Outline: as §1

NCI-H1666 = tested on: NCI-H1666
Outline: as §1

NCI-H1563 = tested on: NCI-H1563
Outline: as §1

NCI-H596 = tested on: NCI-H596
Outline: as §1

LK-2 = tested on: LK-2
Outline: as §1

NCI-H23 = tested on: NCI-H23
Outline: as §1

COR-L 105 = tested on: COR-L 105
Outline: as §1

ChaGo-K-1 = tested on: ChaGo-K-1
Outline: as §1

SK-MES-1 = tested on: SK-MES-1
Outline: as §1

EMC-BAC-2 = tested on: EMC-BAC-2
Outline: as §1

NCI-H441 = tested on: NCI-H441
Outline: as §1

SW 900 = tested on: SW 900
Outline: as §1

NCI-H1755 = tested on: NCI-H1755
Outline: as §1

LOU-NH91 = tested on: LOU-NH91
Outline: as §1

NCI-H1975 = tested on: NCI-H1975
Outline: as §1

PC-3 [JPC-3] = tested on: PC-3 [JPC-3]
Outline: as §1

A-427 = tested on: A-427
Outline: as §1

NC(=O)Nc1cc(-c2cccc(F)c2)sc1C(=O)N[C@H]1CCCNC1 [AZD7762] + Cc1nc(Nc2ncc(C(=O)Nc3c(C)cccc3Cl)s2)cc(N2CCN(CCO)CC2)n1 [Dasatinib] (partner 0.075 µM)
relative viability (NCI-H1734; first compound 0.01 µM): 0.537
relative viability (NCI-H1734; first compound 0.03162 µM): 0.542
relative viability (NCI-H1734; first compound 0.1 µM): 0.493
relative viability (NCI-H1734; first compound 0.3162 µM): 0.394
relative viability (NCI-H1734; first compound 1 µM): 0.35
relative viability (HCC-366; first compound 0.01 µM): 0.707
relative viability (HCC-366; first compound 0.03162 µM): 0.625
relative viability (HCC-366; first compound 0.1 µM): 0.659
relative viability (HCC-366; first compound 0.3162 µM): 0.421
relative viability (HCC-366; first compound 1 µM): 0.177
relative viability (NCI-H2170; first compound 0.01 µM): 0.602
relative viability (NCI-H2170; first compound 0.03162 µM): 0.584
relative viability (NCI-H2170; first compound 0.1 µM): 0.507
relative viability (NCI-H2170; first compound 0.3162 µM): 0.529
relative viability (NCI-H2170; first compound 1 µM): 0.401
relative viability (NCI-H1792; first compound 0.01 µM): 0.814
relative viability (NCI-H1792; first compound 0.03162 µM): 0.861
relative viability (NCI-H1792; first compound 0.1 µM): 0.753
relative viability (NCI-H1792; first compound 0.3162 µM): 0.891
relative viability (NCI-H1792; first compound 1 µM): 0.873
relative viability (H3255; first compound 0.01 µM): 0.347
relative viability (H3255; first compound 0.03162 µM): 0.307
relative viability (H3255; first compound 0.1 µM): 0.44
relative viability (H3255; first compound 0.3162 µM): 0.352
relative viability (H3255; first compound 1 µM): 0.319
relative viability (EKVX; first compound 0.01 µM): 0.623
relative viability (EKVX; first compound 0.03162 µM): 0.615
relative viability (EKVX; first compound 0.1 µM): 0.337
relative viability (EKVX; first compound 0.3162 µM): 0.543
relative viability (EKVX; first compound 1 µM): 0.521
relative viability (NCI-H520; first compound 0.01 µM): 0.212
relative viability (NCI-H520; first compound 0.03162 µM): 0.18
relative viability (NCI-H520; first compound 0.1 µM): 0.192
relative viability (NCI-H520; first compound 0.3162 µM): 0.16
relative viability (NCI-H520; first compound 1 µM): 0.189
relative viability (NCI-H1666; first compound 0.01 µM): 0.909
relative viability (NCI-H1666; first compound 0.03162 µM): 0.88
relative viability (NCI-H1666; first compound 0.1 µM): 0.838
relative viability (NCI-H1666; first compound 0.3162 µM): 0.593
relative viability (NCI-H1666; first compound 1 µM): 0.594
relative viability (NCI-H1563; first compound 0.01 µM): 0.451
relative viability (NCI-H1563; first compound 0.03162 µM): 0.492
relative viability (NCI-H1563; first compound 0.1 µM): 0.5
relative viability (NCI-H1563; first compound 0.3162 µM): 0.524
relative viability (NCI-H1563; first compound 1 µM): 0.419
relative viability (NCI-H596; first compound 0.01 µM): 0.66
relative viability (NCI-H596; first compound 0.03162 µM): 0.632
relative viability (NCI-H596; first compound 0.1 µM): 0.715
relative viability (NCI-H596; first compound 0.3162 µM): 0.611
relative viability (NCI-H596; first compound 1 µM): 0.481
relative viability (LK-2; first compound 0.01 µM): 0.269
relative viability (LK-2; first compound 0.03162 µM): 0.266
relative viability (LK-2; first compound 0.1 µM): 0.283
relative viability (LK-2; first compound 0.3162 µM): 0.27
relative viability (LK-2; first compound 1 µM): 0.298
relative viability (NCI-H23; first compound 0.01 µM): 0.961
relative viability (NCI-H23; first compound 0.03162 µM): 0.832
relative viability (NCI-H23; first compound 0.1 µM): 0.877
relative viability (NCI-H23; first compound 0.3162 µM): 0.567
relative viability (NCI-H23; first compound 1 µM): 0.313
relative viability (COR-L 105; first compound 0.01 µM): 0.324
relative viability (COR-L 105; first compound 0.03162 µM): 0.342
relative viability (COR-L 105; first compound 0.1 µM): 0.324
relative viability (COR-L 105; first compound 0.3162 µM): 0.251
relative viability (COR-L 105; first compound 1 µM): 0.239
relative viability (ChaGo-K-1; first compound 0.01 µM): 0.572
relative viability (ChaGo-K-1; first compound 0.03162 µM): 0.575
relative viability (ChaGo-K-1; first compound 0.1 µM): 0.583
relative viability (ChaGo-K-1; first compound 0.3162 µM): 0.487
relative viability (ChaGo-K-1; first compound 1 µM): 0.583
relative viability (SK-MES-1; first compound 0.01 µM): 0.413
relative viability (SK-MES-1; first compound 0.03162 µM): 0.468
relative viability (SK-MES-1; first compound 0.1 µM): 0.302
relative viability (SK-MES-1; first compound 0.3162 µM): 0.131
relative viability (SK-MES-1; first compound 1 µM): 0.117
relative viability (EMC-BAC-2; first compound 0.01 µM): 0.373
relative viability (EMC-BAC-2; first compound 0.03162 µM): 0.37
relative viability (EMC-BAC-2; first compound 0.1 µM): 0.359
relative viability (EMC-BAC-2; first compound 0.3162 µM): 0.346
relative viability (EMC-BAC-2; first compound 1 µM): 0.322
relative viability (NCI-H441; first compound 0.01 µM): 0.773
relative viability (NCI-H441; first compound 0.03162 µM): 0.68
relative viability (NCI-H441; first compound 0.1 µM): 0.555
relative viability (NCI-H441; first compound 0.3162 µM): 0.556
relative viability (NCI-H441; first compound 1 µM): 0.384
relative viability (SW 900; first compound 0.01 µM): 0.421
relative viability (SW 900; first compound 0.03162 µM): 0.776
relative viability (SW 900; first compound 0.1 µM): 0.625
relative viability (SW 900; first compound 0.3162 µM): 0.674
relative viability (SW 900; first compound 1 µM): 0.165
relative viability (NCI-H1755; first compound 0.01 µM): 0.276
relative viability (NCI-H1755; first compound 0.03162 µM): 0.428
relative viability (NCI-H1755; first compound 0.1 µM): 0.416
relative viability (NCI-H1755; first compound 0.3162 µM): 0.325
relative viability (NCI-H1755; first compound 1 µM): 0.215
relative viability (LOU-NH91; first compound 0.01 µM): 0.561
relative viability (LOU-NH91; first compound 0.03162 µM): 0.596
relative viability (LOU-NH91; first compound 0.1 µM): 0.558
relative viability (LOU-NH91; first compound 0.3162 µM): 0.517
relative viability (LOU-NH91; first compound 1 µM): 0.49
relative viability (NCI-H1975; first compound 0.01 µM): 0.339
relative viability (NCI-H1975; first compound 0.03162 µM): 0.347
relative viability (NCI-H1975; first compound 0.1 µM): 0.42
relative viability (NCI-H1975; first compound 0.3162 µM): 0.305
relative viability (NCI-H1975; first compound 1 µM): 0.242
relative viability (PC-3 [JPC-3]; first compound 0.01 µM): 1.05
relative viability (PC-3 [JPC-3]; first compound 0.03162 µM): 0.961
relative viability (PC-3 [JPC-3]; first compound 0.1 µM): 0.969
relative viability (PC-3 [JPC-3]; first compound 0.3162 µM): 1.01
relative viability (PC-3 [JPC-3]; first compound 1 µM): 0.716
relative viability (A-427; first compound 0.01 µM): 0.83
relative viability (A-427; first compound 0.03162 µM): 0.669
relative viability (A-427; first compound 0.1 µM): 0.812
relative viability (A-427; first compound 0.3162 µM): 0.663
relative viability (A-427; first compound 1 µM): 0.218
